Experimental data taken from patent US9249035B2, “Method and system for treating water in order to reduce its endocrine disrupting effect by means of a living organism” (Veolia Water Solutions & Technologies Support, priority 2012, dated 2016).

Test system: larvae of genetically modified amphibians
Assay: Calibration test: fluorescence of genetically modified amphibian larvae exposed to growing estrogen concentrations
Type: in vivo
Conditions: FIG. 3
Description: A test of calibration of a plant to implement the method according to the invention was carried in order to determine an acceptable threshold value of endocrine disruptors in the treated water. This calibration test also makes it possible to distinguish the natural fluorescence of water and the basal fluorescence of genetically modified aquatic organisms, related to the normal functioning of the genes, from the fluorescence emitted by the same organisms when they detect the presence of an endocrine disrupting and/or toxic and/or genotoxic pollutant. The fluorescence of water and the basal fluorescence of the genetically modified aquatic organisms can be likened to background noise which must be evaluated in order to deduct it from the signal measured in the presence of a pollutant.
The disruptor chosen for example is estrogen which is found in urban wastewater. […] These concentrations have been related to measured intensities of fluorescence.
From a reading of this graph, it can observed that amphibian larvae are sensitive to very low doses of estrogen such as ethinyl-oestradiol (EE2) (2.5×10^−10 mol/L) and emit a detectable and quantifiable intensity of fluorescence. […] This concentration is related with the measured intensity of fluorescence. […]

Substance: ethinyl-oestradiol
- estrogen concentration leading to a physiological reversal: ≥ 2×10^−9 mol/L
- very low dose at which amphibian larvae emit a detectable and quantifiable intensity of fluorescence: 2.5e-10 mol/L
